Laboratory results from US20090191160A1, “Methods of producing pluripotent stem-like cells” (University of Dayton, priority 2007, published 2009).

Tests used:
Format in all cases: cell-based, mouse
embryonic bodies = test: In vitro differentiation of embryoid bodies from SR-iPS cells; conditions: 2 μM trans-retinoic acid, 10 days, gelatin coated plates
Description: One of the most important characteristics of stem-like cells is pluripotency. To investigate the SR-iPS stem cells have the multilineage differention potential as embryonic stem cells in vitro, different passage of iPS cells were used to form embryo bodis (EBs) one week's culture without passing in SR medium without Lif. The EBs continues to differentiate on gelatin coated plates and induced by 2 μM trans-retinoic acid for an additional 10 days. Expression of endoderm-, mesoderm-, and ectoderm-specific markers was examined by using antibodies raised against α-fetoprotein, smooth muscle actin, and β-tubulin III, respectively (21). For more specific cell lineage such as cardiomyocyte and smooth muscle cells differentiation, EBs were transferred to collagen-coated plate which contained α-MEM (cardiac differentiation medium) supplemented with 10 ng/ml platelet-derived growth factor-BB (PDGF-BB). Vascular endothelial growth medium supplemented with 50 ng/ml vascular endothelial growth factor (VEGF) was used for the smooth muscle growth differentiation. Two weeks after culturing the EBs in these medium, the cell morphology were examined by Immunofluorescent Staining with Troponin C and smooth muscle actin antibodies.

ES-like cells = test: Maintenance of ES-like cells in SR-containing medium with growth factors; conditions: bFGF 4 ng/ml and Lif added together to SR-containing medium
Description: (§1) Mouse embryonic skin fibroblast cells (MEFs) derived form 13.5 day mouse embryos and adult mouse primary dermal fibroblasts derived from adult mouse skin were cultured in DMEM Dulbecco's modified Eagle's medium (DMEM) with 10% Fetal Bovine Serum (FBS) at 37° C., 10% CO2. After the cells were grown to confluence, the cells were trypsinized, then suspended in SR-containing medium or basic medium without serum. About 10^5 mouse skin fibroblast cells were transferred to 3 ml SR-containing medium in a 6 well plate. SR-containing medium contained basic medium that included DMEM/F12 (Invitrogen 11330-032), 1× non-Essential Amino Acids (Invitrogen 11140-050), 1× L-Glutamine (Invitrogen 25030-018), […] β-mercaptoethanol and 20% Knockout Serum Replacer (Invitrogen 10828-028). 4 ng/mL bFGF (R&D System Cat# 233-FB) and Leukemia inhibitory factor Lif (ESGRO®, Chemicon ESG1107) were added to the SR-containing medium to prevent stem-like cells from differentiating.
To investigate the possibility that serum replacement (SR)-containing medium can promote the reprogramming and dedifferentiation of skin fibroblast cells into pluripotent stem-like cells, mouse skin fibroblast cells were cultured in fibroblast growth medium, and were then transferred by trypsinization to plates holding SR-containing medium. […]

skin fibroblast cells = test: Conversion (dedifferentiation) of skin fibroblast cells into stem cell-like cells, phase contrast morphology; conditions: for conversion of skin fibroblast cells into stem cell-like cells: Thapsigargin 1 μg/ml added to SR-containing medium; for reprogramming / dedifferentiation of skin fibroblast cells into stem cell-like cells: basic medium with SR or lipid-rich BSA versus basic medium only
Description: as §1
Conversion of fibroblast cells to induced pluripotent stem-like cells can be achieved by culturing a mouse embryonic skin fibroblast (MEF), mouse adult skin fibroblast (MAF) or human skin fibroblast cell in DMEM media having 10% fetal bovine serum (FBS) until the cells are confluent. Serum-replacement (SR)-containing media and 0.25% trypsin/EDTA are then warmed (e.g., at 37° C. in a water bath). Media is aspirated from the fibroblast cell culture plate, cells are washed with 1×PBS, and trypsinized via addition of 2 mls of trypsin/EDTA for one minute, followed by removal of all the trypsin solution. 2 mls of the SR human ES medium or DMEM/F12 medium is then added to the cells (without FBS), and cells are resuspended in the medium using a 5 ml pipet, pipeting up and down until no large clumps remain. About 10^5 cells/well are then added to a six well plate, with each well containing 3 mls of SR human ES medium. The cells are then mixed in this media. Cells are then placed in a warm incubator (e.g., 37° C. at 5% or 10% CO2). The cells are passaged every 3 days for a total of five or more passages. Ingredients of SR human stem cell culture medium are: 400 ml DMEM/F12 (Invitrogen 11330-032), 5 ml non-Essential Amino Acids (Invitrogen 11140-050), 2.5 ml L-Glutamine (Invitrogen 25030-018), […] β-mercaptoethanol (Sigma 7522, add 3.5 ul) and 100 ml Knockout Serum Replacer (Invitrogen 10828-028). Optionally, 4 ng/mL bFGF (R&D System Cat# 233-FB) is present. To make FGF stock, 1 ml of DMEM/F12 was added to dissolve 1 vial of 10 ug of FGF, with this solution aliquotted into five vials, then stored at −20° C. bFGF needed to be added freshly to the medium every time the method was performed. Lif was also needed for mouse cell cultures. Formulation of the SR component of serum-free medium also contained AgNO3 and other trace elements. For AgNO3-containing media, 1000× AgNO3 was added to the medium to a final concentration of 0.0001 mg/L.
To investigate the possibility that serum replacement (SR)-containing medium can promote the reprogramming and dedifferentiation of skin fibroblast cells into pluripotent stem-like cells, mouse skin fibroblast cells were cultured in fibroblast growth medium, and were then transferred by trypsinization to plates holding SR-containing medium. […] Twenty-four hours post-transfer, a majority of cells became small, round, bright-edged granulated cells (FIG. 1a). […]

[1] = test system: fibroblast growth factor receptor 3 (FGFR3); test: Western blotting for FGF Receptor-3 protein in fibroblast cells; conditions: Western blot; for FGFR3 expression: Thapsigargin 1 ug/ml, 24 hour timepoint
From the text: […] […] All Images were acquired in the inverted microscope (Nikon TS100) at 10× magnification using the MetaMorph Imaging Software, and the scale bar is 100 μm.
(§2) (Up-regulation of FGFR3 had been previously shown to play an important role in the reprogramming of primordial germ cells into stem-like cells (Skottman et al. Stem Cell 24:151-167).)
In view of the observed involvement of the FGF signaling pathway, it was then examined whether Ca^2+ might be an important secondary messenger responsible for regulating the reprogramming of fibroblast cells induced by SR containing medium activation of the FGF signaling pathway. Thapsigargin, a tight-binding inhibitor for sarco/endoplasmic reticulum Ca^2+ ATPase, was added to the SR-containing medium at a concentration of 1 μg/ml (Durcova-Hills et al. Stem Cell 24:1441).

Ca^2+ influx = test: Ca2+ signalling in fibroblast cells after transfer into SR-containing medium; conditions: after transfer of fibroblast cells
From the text: as §2

Oct4 promoter = test: Methylation status of the Oct4 promoter in fibroblast cells; conditions: before and after contact with SR medium

Molecule: CC1=C(/C=C/C(C)=C/C=C/C(C)=C/C(=O)O)C(C)(C)CCC1 [retinonic acid, trans-retinoic acid]
- differentiation into three germ layers (AFP, SM-Actin, β-tubulin III staining) (embryonic bodies): differentiation of the embryonic bodies into three germ layers

Molecule: bFGF: basic fibroblast growth factor (R&D System Cat# 233-FB)
- division and differentiation of ES-like cells (ES-like cells): promote division of the ES-like cells, while preventing differentiation of these cells

Molecule: C/C=C(/C)C(=O)O[C@H]1C(C)=C2[C@H]([C@@H]1OC(=O)CCCCCCC)[C@@](C)(OC(C)=O)C[C@H](OC(=O)CCC)[C@@]1(O)[C@H]2OC(=O)[C@@]1(C)O [Thapsigargin, reference compound]
- conversion of skin fibroblast cells into stem cell-like cells (skin fibroblast cells): prevented conversion of the fibroblast cells into stem-like cells
- conversion of skin fibroblast cells into stem cell-like cells (skin fibroblast cells; listed as thapsigargin): prevented
- FGFR3 expression [1]: down-regulated FGF receptor 3 (FGFR3) expression
- FGFR3 expression ([1]; listed as thapsigargin): prevented

Molecule: CCCCC/C=C\C/C=C\C/C=C\C/C=C\CCCC(=O)O [acarchodonic acid]
- reprogramming / dedifferentiation of skin fibroblast cells into stem cell-like cells (skin fibroblast cells): required to create stem-like cells

Molecule: lipid-rich BSA: AlbuMAX I is the high-lipid BSA (Invitrogen)
- reprogramming / dedifferentiation of skin fibroblast cells into stem cell-like cells (skin fibroblast cells): promoted the dedifferentiation of skin fibroblast cells into stem cell-like cells
- reprogramming / dedifferentiation of skin fibroblast cells into stem cell-like cells (skin fibroblast cells; listed as high-lipid BSA): required to create stem-like cells
- FGFR3 expression after transfer into medium ([1]; 2, 4, 8, 12 hours after transfer): induced
- Ca^2+ influx / signalling (Ca^2+ influx): induced
- methylation status of the Oct4 promoter (Oct4 promoter): induced
